Results published in patent US9127301B2, “Method of detecting the presence of polycyclic aromatic hydrocarbons” (BIOO SCIENTIFIC CORPORATION, priority 2012, dated 2015).

Key:
NDO/NahB/NahC [1] = target: T1, NDO/NahB/NahC (Pseudomonas putida, UniProt P0A110); experiment: Coupled naphthalene dioxygenase/NahB/NahC colorimetric assay; type: biochemical
T1 construct: made in house; host or cells: E. coli JM109 (DE3) (pDTG141) for NDO; E. coli BL21 Star (DE3) for NahB and NahC
Text: This disclosure relates to a method that uses microbial enzymes which degrade polyaromatic hydrocarbons to detect polycyclic aromatic hydrocarbons (PAH) in food and environmental samples. The first step in PAH degradation uses a PAH dioxygenase (PAHDO) enzyme such as naphthalene 1,2-dioxygenase (NDO) or biphenyl dioxygenase (BDO) to convert the PAH compound to PAH-(cis)-diol in an NADH- or NADPH-dependent manner.
The first reaction is catalyzed by the 1,2-dihydroxy-1,2-dihydronaphthalene dehydrogenase enzyme (NahB), while the second reaction is catalyzed by the enzyme 1,2-dihydroxynaphthalene dioxygenase (NahC). These enzymes are both derived from the bacteria Pseudomonas putida.
When these enzymes are used in succession, they function sequentially to convert colorless PAH compounds into a readily-detectable visible product class known as PAH chromene compounds.
(§1) 2 tubes each of NahB, Nahc, and NDO enzymes (1.7 ml aliquotes) were thawed from −20 C along with 2.6 mM NADH in water. 2.5 ml each of the NahC and NahB enzymes were desalted using PD-10 gel filtration and buffer exchanged into 20 mM Tris-Cl pH 8.5 at the same time. Once all of the reagents were thawed and desalted, positive and negative naphthalene reaction were made containing 127 ul each of NahB, NahC, and NDO with 20 ppm naphthalene in dimethylformamide (negative reactions contained only equal amounts dimethylformamide) and 0.133 mM NADH final concentration with a final reaction volume of 405 ul. The reaction was run at 25° C. for 2 hours and the sample absorbance was measured using a BioTek Synergy2 plate reader in the 320-640 nm wavelength range. […] Reactions for all PAH's conducted in the same, or a very similar format, depending on the volume of sample in the reaction. FIG. 4 depicts a spectrophotometric graph showing the absorbance caused by the presence of naphthalene placed in the above NDO/NahB/NahC assay.

NDO/NahB/NahC [2] = target: T1, NDO/NahB/NahC; experiment: Colorimetric detection of fluorene in spiked clam samples, NDO/NahB/NahC assay; type: biochemical; details: clam homogenate spiked to 80 ppm fluorene, dichloromethane extraction, 10 μl of 200 ppm DMF solution in 411 μl reaction, 2 hr, 25° C.
Protocol: as §1
Approximately 25 g of clams were homogenized using a blender; a 2 g sample of this 25 g preparation was spiked to 80 ppm fluorene. […] The reaction was run for 2 hr at 25° C. and then read on a BioTek Synergy2 plate reader from 320-640 nm. FIG. 5 depicts the absorbance of fluorene spiked clam samples in the NDO/NahB/NahC assay.

T1 sequence (P0A110 whole entry): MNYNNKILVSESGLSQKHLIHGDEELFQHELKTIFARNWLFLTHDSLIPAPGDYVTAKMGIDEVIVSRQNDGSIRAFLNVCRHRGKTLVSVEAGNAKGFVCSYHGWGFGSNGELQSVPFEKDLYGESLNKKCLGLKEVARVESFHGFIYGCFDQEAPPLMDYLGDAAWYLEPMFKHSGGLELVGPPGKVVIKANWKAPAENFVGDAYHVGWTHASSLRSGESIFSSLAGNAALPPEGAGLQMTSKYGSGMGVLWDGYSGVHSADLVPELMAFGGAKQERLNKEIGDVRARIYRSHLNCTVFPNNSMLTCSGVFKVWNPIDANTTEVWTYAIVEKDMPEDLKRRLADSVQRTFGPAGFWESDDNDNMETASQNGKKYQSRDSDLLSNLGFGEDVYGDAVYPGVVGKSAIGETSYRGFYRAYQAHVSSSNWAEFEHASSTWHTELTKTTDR
T1 sequence (P0A112 whole entry, further chain): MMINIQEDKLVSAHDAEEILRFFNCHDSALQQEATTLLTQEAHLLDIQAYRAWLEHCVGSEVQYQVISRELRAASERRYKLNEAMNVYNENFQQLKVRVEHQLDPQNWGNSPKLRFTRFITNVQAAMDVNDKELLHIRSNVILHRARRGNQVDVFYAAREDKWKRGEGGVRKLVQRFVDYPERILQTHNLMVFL

Q: `c1ccc2c(c1)ccc1ccccc12` [phenanthrene] was tested. Which “detection of PAH compound by the colorimetric assay” value (“detection of PAH compound” for short) (NDO/NahB/NahC [1]) did it give?
A: The value was “detect”.

Q: With `c1ccc2c(c1)cc1ccc3cccc4ccc2c1c34` [benz(a)pyrene] as the compound, how does the “detection of PAH compound” value (NDO/NahB/NahC [1]) read?
A: The value was “detect”.

Q: For `c1ccc2c(c1)[nH]c1ccccc12` [carbazole], which “detection of PAH compound” value (NDO/NahB/NahC [1]) is on record?
A: Its value is “detect”.

Q: For `c1ccc2c(c1)Cc1ccccc1-2` [fluorene], which “absorbance at 390 nm versus buffer control or post-extraction spike” value (NDO/NahB/NahC [2]) is on record?
A: The value was “slightly higher”.

Q: And the “detection of PAH compound” value (NDO/NahB/NahC [1])?
A: The value was “detect”.

Q: How did the “detection of PAH compound” value (NDO/NahB/NahC [1]) turn out when `c1ccc2cc3ccccc3cc2c1` [anthracene] was run?
A: The value was “detect”.

Q: Which “detection of PAH compound” value (NDO/NahB/NahC [1]) does the source give for `c1ccc(-c2ccccc2)cc1` [biphenyl] here?
A: Its value is “detect”.

Q: Which “detection of PAH compound” value (NDO/NahB/NahC [1]) does the source give for `c1ccc2ccccc2c1` [naphthalene] here?
A: Its value is “detect”.

Q: And the “absorbance at 370 nm versus negative control reaction” value (NDO/NahB/NahC [1]; 20 ppm naphthalene in dimethylformamide, 0.133 mM NADH, 25° C., 2 hours)?
A: Its value is “significantly higher”.
